Efficacy, logP and chromatographic logP data for 12 compounds are collected here from patent publication US9686985B2, “Fungicide N-cycloalkyl-N-bicyclicmethylene-carboxamide derivatives” (BAYER INTELLECTUAL PROPERTY GMBH, priority 2012, dated 2017).

One series concerns Puccinia recondita. Kind of series: Example R: in vivo preventive test on Puccinia recondita (brown rust on wheat). Particulars: table R; 500 ppm; wheat plants; grading 12 days after contamination. How it is done:
Example R: In Vivo Preventive Test on Puccinia recondita (Brown Rust on Wheat) […] Wheat plants (“Scipion” variety), sown in starter cups on a 50/50 peat soil pozzolana substrate and grown at 22° C., are treated at the 1 leaf stage (10 cm height) by spraying with the active ingredient prepared as described above. Plants, used as controls, are treated with the mixture of acetone/tween/DMSO/water not containing the active material. After 24 hours, the plants are contaminated by spraying the leaves with an aqueous suspension of Puccinia recondita spores (100 000 spores per mL). The spores are collected from an infected plant and are suspended in water containing 2.5 mL/L of Tween 80 at 10%. The contaminated wheat plants are incubated for 24 hours at 20° C. and at 100% relative humidity, and then for 10 days at 20° C. and at 70-80% relative humidity. Grading (% of efficacy) is carried out 12 days after the contamination, in comparison with the control plants.

For another series, the system named is Pyrenophora teres. Put plainly: Example N: in vivo preventive test on Pyrenophora teres (barley). Particulars: table N; 500 ppm; barley plants; grading 14 days after contamination. The protocol: Example N: In Vivo Preventive Test on Pyrenophora teres (Barley) […] Barley plants (“Plaisant” variety), sown in starter cups on a 50/50 peat soil pozzolana substrate and grown at 22° C., are treated at the 1 leaf stage (10 cm height) by spraying with the active ingredient prepared as described above. Plants, used as controls, are treated with the mixture of acetone/tween/DMSO/water not containing the active material. After 24 hours, the plants are contaminated by spraying the leaves with an aqueous suspension of Pyrenophora teres spores (12 000 spores per mL). The spores are collected from a 12-day-old culture. The contaminated barley plants are incubated for 48 hours at 20° C. and at 100% relative humidity, and then for 12 days at 20° C. at 70-80% relative humidity. Grading (% of efficacy) is carried out 14 days after the contamination, in comparison with the control plants.

A further series relates to Sphaerotheca fuliginea. Put plainly: Example B: in vivo preventive test on Sphaerotheca fuliginea (powdery mildew on cucurbits). Particulars: table B; 500 ppm; gherkin plants; grading 12 days after contamination. The protocol: Example B: In Vivo Preventive Test on Sphaerotheca fuliginea (Powdery Mildew on Cucurbits) […] Gherkin plants (“Vert petit de Paris” variety), sown in starter cups on a 50/50 peat soil-pozzolana substrate and grown at 24° C., are treated at the Z11 cotyledon stage by spraying with the active ingredient prepared as described above. Plants, used as controls, are treated with the mixture of acetone/tween/DMSO/water not containing the active material. After 24 hours, the plants are contaminated by spraying the cotyledons with an aqueous suspension of Sphaerotheca fuliginea spores (100 000 spores per mL). The spores are collected from infected plants. The contaminated gherkin plants are incubated at about 20° C. and at 70-80% relative humidity. Grading (% of efficacy) is carried out 12 days after the contamination, in comparison with the control plants.

In a further series the test system is Botrytis cinerea. Kind of series: Example S: in vivo preventive test on Botrytis cinerea (grey mould). The settings on record: table S; 500 ppm; gherkin plants; grading 4 to 5 days after contamination. The protocol: Example S: In Vivo Preventive Test on Botrytis cinerea (Grey Mould) […] Gherkin plants (“Vert petit de Paris” variety), sown in starter cups on a 50/50 peat soil pozzolana substrate and grown at 24° C., are treated at the Z11 cotyledon stage by spraying with the active ingredient prepared as described above. Plants, used as controls, are treated with the mixture of acetone/tween/DMSO/water not containing the active material. After 24 hours, the plants are contaminated by spraying the cotyledons with an aqueous suspension of cryopreserved Botrytis cinerea spores (50 000 spores per mL). The spores are suspended in a nutrient solution composed of 10 g/L of PDB, 50 g/L of D-Fructose, 2 g/L of NH4NO3 and 1 g/L of KH2PO4. The contaminated gherkin plants are incubated at 17° C. and at 90% relative humidity. Grading (% of efficacy) is carried out 4 to 5 days after the contamination, in comparison with the control plants.

Series [1] is described as follows: log P by HPLC on reversed-phase column (EEC Directive 79/831 Annex V.A8). Particulars: for logP: Table 1, HPLC C18, 40° C., 0.1% aqueous formic acid and acetonitrile gradient. The format is physicochemical. How it is done:
In table 1, the log P values were determined in accordance with EEC Directive 79/831 Annex V.A8 by HPLC (High Performance Liquid Chromatography) on a reversed-phase column (C 18), using the method described below: Temperature: 40° C.; Mobile phases: 0.1% aqueous formic acid and acetonitrile; linear gradient from 10% acetonitrile to 90% acetonitrile. Calibration was carried out using unbranched alkan-2-ones (comprising 3 to 16 carbon atoms) with known log P values (determination of the log P values by the retention times using linear interpolation between two successive alkanones). lambda-max-values were determined using UV-spectra from 200 nm to 400 nm and the peak values of the chromatographic signals.

The subject of a further series is Alternaria brassicae. Put plainly: Example D: in vivo preventive test on Alternaria brassicae (leaf spot on radish). Particulars: table D; 500 ppm; radish plants; grading 6 days after contamination. How it is done: Example D: In Vivo Preventive Test on Alternaria brassicae (Leaf Spot on Radish) […] Radish plants (“Pernod Clair” variety), sown in starter cups on a 50/50 peat soil pozzolana substrate and grown at 17° C., are treated at the cotyledon stage by spraying with the active ingredient prepared as described above. Plants, used as controls, are treated with the mixture of acetone/tween/DMSO/water not containing the active material. After 24 hours, the plants are contaminated by spraying the cotyledons with an aqueous suspension of Alternaria brassicae spores (50 000 spores per mL). The spores are collected from a 15-day-old culture. The contaminated radish plants are incubated at 20° C. and at 100% relative humidity. Grading (% of efficacy) is carried out 6 days after the contamination, in comparison with the control plants.

The test system of a further series is Septoria tritici. Kind of series: Example L: in vivo preventive test on Septoria tritici (wheat). Particulars: table L; 500 ppm; wheat plants; grading 24 days after contamination. How it is done: Example L: In Vivo Preventive Test on Septoria tritici (Wheat) […] Wheat plants (“Scipion” variety), sown in starter cups on a 50/50 peat soil pozzolana substrate and grown at 22° C., are treated at the 1 leaf stage (10 cm height) by spraying with the active ingredient prepared as described above. Plants, used as controls, are treated with the mixture of acetone/tween/DMSO/water not containing the active material. After 24 hours, the plants are contaminated by spraying the leaves with an aqueous suspension of cryopreserved Septoria tritici spores (500 000 spores per mL). The contaminated wheat plants are incubated for 72 hours at 18° C. and at 100% relative humidity, and then for 21 days at 90% relative humidity. Grading (% of efficacy) is carried out 24 days after the contamination, in comparison with the control plants.

The next series has as its system Uromyces appendiculatus. Kind of series: Example G: in vivo preventive test on Uromyces appendiculatus (bean rust). The settings on record: bean plants. How it is done:
Example G: In Vivo Preventive Test on Uromyces appendiculatus (Bean Rust) […] Bean plants (“Saxa” variety), sown in starter cups on a 50/50 peat soil pozzolana substrate and grown at 24° C., are treated at the 2 leaf stage (9 cm height) by spraying with the active ingredient prepared as described above. Plants, used as controls, are treated with the mixture of acetone/tween/DMSO/water not containing the active material. After 24 hours, the plants are contaminated by spraying the leaves with an aqueous suspension of Uromyces appendiculatus spores (150 000 spores per mL). The spores are collected from infected plants and are suspended in water containing 2.5 mL/L of Tween 80 at 10%. The contaminated bean plants are incubated for 24 hours at 20° C. and at 100% relative humidity, and then for 10 days at 20° C. and at 70-80% relative humidity. Grading (% of efficacy) is carried out 11 days after the contamination, in comparison with the control plants.

Where [2] appears, read: table G1, 500 ppm, grading 11 days after contamination.

Structures are written as SMILES.

For the compound `Cn1nc(C(F)F)c(C(=S)N(CC2CC(C)(C)c3ccccc32)C2CC2)c1F` (stereo not shown) [I.11], the Efficacy in the series on Puccinia recondita was found to be 94%; with Pyrenophora teres, 100%; in the series on Sphaerotheca fuliginea, 100%; in the series on Botrytis cinerea, 100%; in the series on Alternaria brassicae, 100%; with Septoria tritici, 100%. This compound also came in with a logP in series [1] of 4.69.
For `Cn1nc(C(F)F)c(C(=O)N(CC2CCc3cc(Cl)ccc32)C2CC2)c1F` (stereo not shown) [I.12], the Efficacy in the series with Puccinia recondita is 81%; in the series on Pyrenophora teres it was 100%; with Uromyces appendiculatus (setting [2]), 100%; in the series on Uromyces appendiculatus (table G2, dose 100 ppm) it was 19%; with Uromyces appendiculatus (table G2, dose 500 ppm), 100%; with Sphaerotheca fuliginea it was 100%. Also, the figures for the Efficacy in the series on Alternaria brassicae and in the series on Septoria tritici were 100% and 93%, respectively. In addition, the logP in series [1] stood at 3.83.
With `Cn1nc(C(F)F)c(C(=O)N(CC2CCc3ccc(C(F)(F)F)cc32)C2CC2)c1Cl` (stereo not shown) [I.16], the Efficacy is 88% with Puccinia recondita; 100% in the series with Uromyces appendiculatus (setting [2]); 100% in the series on Sphaerotheca fuliginea; 100% with Botrytis cinerea; 98% in the series with Septoria tritici. Also, the logP in series [1] stood at 4.04.
`Cn1nc(C(F)F)c(C(=O)N(CC2CCc3ccc(C(F)(F)F)cc32)C2CC2)c1F` (stereo not shown) [I.17]: the Efficacy is listed as 100% with Puccinia recondita; 86% in the series on Pyrenophora teres; 100% in the series with Uromyces appendiculatus (setting [2]); 100% in the series on Sphaerotheca fuliginea; 100% with Botrytis cinerea; 94% in the series on Septoria tritici. In addition, in series [1], the logP is given as 3.87.
As for `Cn1nc(C(F)F)c(C(=O)N(CC2CCc3c(Cl)cc(Cl)cc32)C2CC2)c1F` (stereo not shown) [I.18], the Efficacy was determined as 94% in the series on Puccinia recondita; 100% with Pyrenophora teres; 100% in the series with Uromyces appendiculatus (setting [2]); 100% in the series with Sphaerotheca fuliginea; 100% in the series on Alternaria brassicae; 93% with Septoria tritici. The same compound came in with a logP in series [1] of 4.39.
Consider `Cn1nc(C(F)F)c(C(=S)N(CC2CCc3c(Cl)cc(Cl)cc32)C2CC2)c1F` (stereo not shown) [I.20], for which the Efficacy in the series on Puccinia recondita is 83%; in the series on Pyrenophora teres, 100%; with Uromyces appendiculatus (setting [2]), 100%; in the series on Sphaerotheca fuliginea, 100%; in the series on Botrytis cinerea it was 75%; in the series on Alternaria brassicae, 100%. The compound also came in with an Efficacy in the series with Septoria tritici of 97%. For the same compound, the logP in series [1] is 5.22.
For `CC1CCC(CN(C(=O)c2c(C(F)F)nn(C)c2F)C2CC2)c2ccccc21` (stereo not shown) [I.24], the Efficacy in the series with Puccinia recondita was 94%; with Pyrenophora teres, 100%; in the series on Uromyces appendiculatus (setting [2]) it was 100%; in the series on Sphaerotheca fuliginea it was 100%; in the series on Botrytis cinerea, 100%; in the series on Alternaria brassicae, 100%. Also, the Efficacy in the series on Septoria tritici is 100%. The compound also gave a logP in series [1] of 3.96.
For the compound `COc1cccc2c1CCCC2CN(C(=O)c1c(C(F)F)nn(C)c1F)C1CC1` (stereo not shown) [I.26, N-cyclopropyl-3-(difluoromethyl)-5-fluoro-N-[(5-methoxy-1,2,3,4-tetrahydronaphthalen-1-yl)methyl]-1-methyl-1H-pyrazole-4-carboxamide], the Efficacy with Pyrenophora teres, in the series with Sphaerotheca fuliginea, with Botrytis cinerea and with Alternaria brassicae was 100% in each case. Further, the chromatographic logP in series [1] amounted to 3.65.
Turning to `Cn1nc(C(F)F)c(C(=O)N(CC2CCCc3cccc(Cl)c32)C2CC2)c1F` (stereo not shown) [I.28], the Efficacy amounted to 94% in the series on Pyrenophora teres; 88% with Uromyces appendiculatus (setting [2]); 100% in the series with Sphaerotheca fuliginea; 100% in the series on Botrytis cinerea; 100% in the series with Alternaria brassicae; 100% in the series with Septoria tritici. The compound further showed a logP in series [1] of 4.09.
As to `Cn1nc(C(F)F)c(C(=O)N(CC2CCCCc3ccccc32)C2CC2)c1F` (stereo not shown) [I.30], the Efficacy amounted to 94% in the series with Puccinia recondita; 100% with Pyrenophora teres; 100% with Uromyces appendiculatus (setting [2]); 100% in the series with Sphaerotheca fuliginea; 100% with Botrytis cinerea; 100% in the series on Alternaria brassicae. Also, in the series with Septoria tritici, the Efficacy worked out at 100%. The compound further showed a logP in series [1] of 3.90.
As for `Cn1nc(C(F)F)c(C(=O)N(CC2CSCc3ccccc32)C2CC2)c1F` (stereo not shown) [I.34], the Efficacy is 94% in the series on Pyrenophora teres; 90% with Sphaerotheca fuliginea; 100% in the series with Botrytis cinerea; 100% in the series with Alternaria brassicae; 93% in the series with Septoria tritici. Moreover, in series [1], the logP turned out to be 3.21.
Turning to `Cn1nc(C(F)F)c(C(=O)N(CC2CCSc3ccc(F)cc32)C2CC2)c1F` (stereo not shown) [I.35], the Efficacy in the series with Puccinia recondita is given as 78%; in the series with Pyrenophora teres, 98%; in the series with Uromyces appendiculatus (setting [2]) it was 100%; in the series with Sphaerotheca fuliginea it was 80%; in the series on Botrytis cinerea, 100%; with Alternaria brassicae, 88%. This compound had a logP in series [1] of 3.44.
